Results on 6 molecules are retold here after US20250066485A1, “USE OF INTEGRIN a5b1 INHIBITORS IN THE TREATMENT OF PULMONARY HYPERTENSION AND HEART FAILURE” (Morphic Therapeutic, Inc., priority 2022, published 2025).

Series [1] concerns Human PAH-RVFbs. The experiment in a line: PAH-RVFbs proliferation and activation. The settings on record: 0.25 μM, 1 μM, and 4 μM. The class given is cell-based. As for the experimental part:
PAH patient samples were assessed for expression of fibronectin binding integrins. […] Human PAH-RVFbs were treated with integrin α5β1 inhibitor SMi at 0.25 μM, 1 μM, and 4 μM. […] (FIGS. 22A and 22B).

The subject of series [2] is Primary rat cardiomyocytes. The experiment in a line: PE-induced cardiomyocyte hypertrophy. The settings on record: 100 μM PE; 0.25 μM, 1 μM, and 4 μM. The series is classed as cell-based. As for the experimental part:
Primary rat cardiomyocytes were treated with 50 μM, 100 μM, or 200 μM, phenylephrine (PE). Expression of ITGα5, ITGαV, ITGβ1, ITGβ3, ITGβ5 were determined by western blot (FIG. 21A). Cells treated with 100 μM PE were simultaneously exposed to integrin α5β1 inhibitor SMi at 0.25 μM, 1 μM, and 4 μM.

Series [3] has as its system PAB rats. Description: Pulmonary Arterial Banding (PAB) rat model. The class given is in vivo. As for the experimental part:
Animals were divided into three study groups as follows: • (1) Control group/Sham (n=5) • (2) PAB+PBS vehicle orally twice a day (BID) (n=10) • (3) PAB+SMi at 100 mpk orally BID (n=10)
Pulmonary arterial constriction was surgically performed in rats at day 0. Beginning in week 4 following surgery, animals were exposed to vehicle or SMi treatment. Weekly echocardiography was performed from surgery to week 10. After a total of 10 weeks, animals were subjected to RV catheterization.
PAB rats were subjected to right heart catheterization (RHC) (using standard techniques and while the subject is in steady state). Treatment with integrin α5β1 inhibitor, SMi improved cardiac output, stroke volume, RVSP and RVEPD.

In series [4] the test system is MCT animals. The experiment in a line: MCT animals with a cardiac defect, echocardiography. The note with it: 100 mg/Kg PO BID, Day 14 to Day 27, PH phenotype not induced. The series is classed as in vivo. As for the experimental part: To test the impact of SMi on cardiac function, MCT animals with a cardiac defect were treated with SMi or sildenafil as follows (1) Non-MCT vehicle PO BID; (2) MCT+vehicle PO BID (3) MCT+SMi 100 mg/Kg PO BID (4) MCT+sildenafil 10 mg/Kg PO BID (5) MCT+sildenafil 30 mg/Kg PO BID (6) MCT+sildenafil 100 mg/Kg PO BID. Pulmonary hypertension phenotype was not induced in this study (MCT causes both vascular and cardiac injury). Treatment with SMi, vehicle or sildenafil was administered, twice a day, from Day 14 to Day 27. Echocardiogram monitoring of the progression of the disease was carried out on Day 0, Day 14 and on surgery day (Day 28) for all the animals. Blood samples were taken on Day 0, Day 14 and Day 28. Pulmonary artery maximum velocity, cardiac output, stroke volume, right ventricle anterior wall thickness and pulmonary artery acceleration time were determined. […] The data were used to calculate the cardiac output and the stroke volume as follows: The cardiac output was calculated using the following formula (JF Lewis et al. 1984): Cardiac output=heart rate×VTI((pulmonary artery diameter^2×3.1416)/4) The stroke volume was calculated using the following formula: Stroke volume=cardiac output/heart rate

Series [5] relates to SuHx rats. The experiment in a line: Sugen/Hypoxia (SuHx) induced PAH rat model. The series is classed as in vivo. As for the experimental part: Broad-spectrum pharmacological inhibition of α5β1 improves hemodynamics and vascular remodeling in Su/Hx rats with established PAH alone or in combination with standard of care.
Animals were injected with 20 mg/kg Sugen 5416 at day 0 and subjected to hypoxia conditions (10% oxygen) for 3 weeks. Echocardiography was performed at the start of treatment with integrin α5β1 inhibitors at week 3 and at week 5. Right heart catheterization was performed at the end of week 5. Tissues were harvested for analysis.

In series [6] the test system is SuHx mice. The experiment in a line: Sugen/hypoxia (SuHx) mice model of PAH. The note with it: SMi 100 mpk PO BID, 339.1 10 mpk IP 3x week. The class given is in vivo, mouse. As for the experimental part: SuHx treated mice were prepared as described above and treated with integrin α5β1 antibody inhibitors (e.g., anti-mouse integrin α5β1 clone 339.1) or SMi. anti-mouse integrin α5β1 clone 339.1 is described in Bhaskar, V., Zhang, D., Fox, M. et al. A function blocking anti-mouse integrin α5β1 antibody inhibits angiogenesis and impedes tumor growth in vivo. J Transl Med 5, 61 (2007). doi.org/10.1186/1479-5876-5-61), which is hereby incorporated by reference in its entirety.
Mice were injected with 20 mg/kg Sugen 5416 (vascular endothelial growth factor receptor inhibitor) at day 0, day 7 and day 14 and subjected to hypoxia conditions (10% oxygen) for 3 weeks. Echocardiography was performed at the start of treatment with integrin α5β1 inhibitors at week 3 (e.g., day 21) and at the end of week 5. Right heart catheterization was performed at the end of week 5.
Cardiac function was measured including improved cardiac output, and stroke volume. Other features including media cell wall thickness, vascular remodeling, proliferation, and apoptosis were measured.
Mice were divided into the following treatment and control groups: • Control group (n=5) • Vehicle PO BID (n=10) • SMi 100 mpk PO BID (n=10) • Macitentan 15 mpk PO BID (n=15) • IgG isotype control10 mpk IP (3× week) (n=15) • 339.1 10 mpk IP (3× week) (n=15) • 339.1 10 mpk IP+Macitentan 15 mpk PO BID (n=15)

Series [7] deals with PAH-PASMCs. Description: Proliferation (Ki67) and apoptosis (annexin V) of PAH-PASMCs on Fb-coated plates. The note with it: 0.25 μM, 1 μM, and 4 μM on Fb-coated plates. The series is classed as cell-based, human. As for the experimental part: Integrin α5β1 inhibitors (MRT, SMi, P1D6, or M200) were assessed for proliferation and apoptosis on Fb-coated plates. FIG. 5A-5C show exemplary proliferation (Ki67) and apoptosis (annexin V) of PAH-PASMCs treated with integrin α5β1 inhibitors (MRT, SMi, P1D6, or M200).
PAH-PASMCs were treated with integrin α5β1 inhibitor SMi at 0.25 μM, 1 μM, and 4 μM on Fb-coated plates. Cells were evaluated by Western blot analysis to determine expression levels of ITGα5, ITGαV, ITGβ1, p-FAK, MCM2, PLK1, p-ERK, ERK, PCNA and Survivin in hPASMCs (FIG. 6A-6B).

For series [8], the system named is MCT rats. The experiment in a line: Monocrotaline (MCT) rat pulmonary hypertension model. The class given is in vivo. As for the experimental part:
MCT Animals were divided into study groups as follows: • (1) Non-MCT vehicle orally twice a day (BID) (n=6) • (2) MCT+PBS vehicle orally twice a day (BID) (n=8) • (3) MCT+SMi at 100 mpk orally BID (n=8)
MCT (60 mg/kg) was administered by subcutaneous injection. Animals were exposed to vehicle or SMi treatment for 2 weeks. Blood, RV and lung analysis was performed. Cells were assessed for expression of EVG, αSMA, PCNA, and C3C. […] FIG. 12A-12D show exemplary results of treatment with SMi in MCT rats. Occlusion score (FIG. 12A), vascular remodeling (FIG. 12B), apoptosis (FIG. 12C) and proliferation (FIG. 12D) were measured.
MCT animals were treated with SMi alone or in combination with SoC therapy (Macitentan (1 mg/kg)+Tadalafil (10 mg/kg) daily). MCT Animals were divided into study groups as follows: • (1) Non-MCT vehicle orally twice a day (BID) (n=6) • (2) MCT+PBS vehicle orally twice a day (BID) (n=8) • (3) MCT+SMi at 100 mpk orally BID (n=8) • (4) MCT+SMi at 100 mpk orally BID+SoC (Macitentan (1 mg/kg)+Tadalafil (10 mg/kg) daily (n=8).
MCT (60 mg/kg) was administered by subcutaneous injection at day 0. Beginning in week 3, animals were exposed to vehicle or SMi treatment for 2 weeks. (FIG. 23A) Blood, RV and lung analysis was performed.
To determine the selectivity of SMi for α5β1, MCT animals were prepared as described above and treated with SMi or a dual inhibitor of α5β1/αvβ1 (MRT).

For series [9] the following is noted: cited from earlier work.
Series [10] has as its target integrin α5β1 on hPASMCs (human) (UniProt P08648). Description: cell-based or functional assay.
In series [11] the target is rat α5β1 (cells expressing rat α5β1) (rat). The experiment in a line: cell-based or functional assay.
The test system of series [12] is hPASMCs. The experiment in a line: hPASMC proliferation on fibronectin-coated plates. The note with it: fibronectin-coated 96 well plate, up to 5 days. The class given is cell-based, human. As for the experimental part: Antibody integrin α5β1 inhibitors were evaluated to determine whether integrin α5β1 inhibitors (e.g., P1D6 antibody or M200 antibody) could impair proliferation. Cells were seeded at 3000 cells/well in a 96 well plate coated with fibronectin. The next day integrin α5β1 inhibitor treatments were added and proliferation was monitored for up to 5 days.

For series [13] the following is noted: at room temperature; cited from earlier work.
In series [14] the target is rat α5β1 (cells expressing rat α5β1) (rat, UniProt A0A0G2K1E2 94-1099; P49134 21-798). Description: cell-based or functional assay.

Read-outs that look alike come from different tables or passages of the source.

Sequence of integrin α5β1 on hPASMCs (human) (P08648 42-1049, chain 1 of 2): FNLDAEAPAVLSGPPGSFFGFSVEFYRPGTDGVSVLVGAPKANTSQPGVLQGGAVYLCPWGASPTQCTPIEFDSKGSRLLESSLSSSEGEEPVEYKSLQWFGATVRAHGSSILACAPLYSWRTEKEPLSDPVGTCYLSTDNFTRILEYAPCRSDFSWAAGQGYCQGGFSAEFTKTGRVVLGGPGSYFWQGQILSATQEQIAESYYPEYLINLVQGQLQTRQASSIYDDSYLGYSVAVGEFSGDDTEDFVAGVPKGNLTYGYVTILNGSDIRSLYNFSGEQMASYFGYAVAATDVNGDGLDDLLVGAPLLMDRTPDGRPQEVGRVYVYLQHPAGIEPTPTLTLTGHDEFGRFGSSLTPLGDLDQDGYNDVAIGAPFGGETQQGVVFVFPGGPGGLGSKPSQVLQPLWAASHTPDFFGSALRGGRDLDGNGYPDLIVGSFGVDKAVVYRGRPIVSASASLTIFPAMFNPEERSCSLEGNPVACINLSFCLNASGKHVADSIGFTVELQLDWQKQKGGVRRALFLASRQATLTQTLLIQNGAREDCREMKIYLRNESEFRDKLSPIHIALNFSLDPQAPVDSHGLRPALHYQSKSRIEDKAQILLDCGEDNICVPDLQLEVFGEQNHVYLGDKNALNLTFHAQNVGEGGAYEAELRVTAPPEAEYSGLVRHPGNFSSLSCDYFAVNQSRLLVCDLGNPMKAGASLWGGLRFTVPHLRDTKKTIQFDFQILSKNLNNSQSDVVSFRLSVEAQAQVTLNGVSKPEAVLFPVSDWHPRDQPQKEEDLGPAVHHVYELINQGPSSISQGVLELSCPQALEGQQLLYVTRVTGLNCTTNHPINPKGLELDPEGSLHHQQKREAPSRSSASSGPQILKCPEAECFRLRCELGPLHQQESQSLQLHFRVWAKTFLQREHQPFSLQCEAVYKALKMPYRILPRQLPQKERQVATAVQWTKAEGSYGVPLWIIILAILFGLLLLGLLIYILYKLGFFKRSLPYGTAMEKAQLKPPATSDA
Sequence of integrin α5β1 on hPASMCs (human) (P05556 21-798, chain 2 of 2, further chain): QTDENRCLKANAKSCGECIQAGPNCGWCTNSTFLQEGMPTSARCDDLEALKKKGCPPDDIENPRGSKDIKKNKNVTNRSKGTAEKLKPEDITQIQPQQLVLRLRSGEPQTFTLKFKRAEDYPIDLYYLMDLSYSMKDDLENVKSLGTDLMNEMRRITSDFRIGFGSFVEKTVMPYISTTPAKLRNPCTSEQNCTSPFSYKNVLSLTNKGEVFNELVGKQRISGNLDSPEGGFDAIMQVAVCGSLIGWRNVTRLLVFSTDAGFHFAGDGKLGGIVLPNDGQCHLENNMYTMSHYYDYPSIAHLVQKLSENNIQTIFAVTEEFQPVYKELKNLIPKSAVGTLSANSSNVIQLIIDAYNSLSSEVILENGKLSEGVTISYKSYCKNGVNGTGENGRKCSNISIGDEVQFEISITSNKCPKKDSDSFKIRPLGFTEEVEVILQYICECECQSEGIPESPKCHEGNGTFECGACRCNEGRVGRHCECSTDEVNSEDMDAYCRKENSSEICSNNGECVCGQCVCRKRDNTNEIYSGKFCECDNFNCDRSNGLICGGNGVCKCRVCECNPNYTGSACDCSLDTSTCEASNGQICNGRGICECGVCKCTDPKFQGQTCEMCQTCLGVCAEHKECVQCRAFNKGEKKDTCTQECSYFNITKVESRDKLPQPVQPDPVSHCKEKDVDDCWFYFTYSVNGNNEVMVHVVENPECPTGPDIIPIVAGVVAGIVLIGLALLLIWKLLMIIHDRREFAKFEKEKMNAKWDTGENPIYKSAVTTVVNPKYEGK

Regarding `Cc1nn(C)c2c(C(C(=O)O)N3CC(OCCCCc4ccc5c(n4)NCCC5)C3)cccc12` (stereo not drawn) [SMi], the “PAH-RVFbs proliferation and activation” value in [1] was “decreases PAH-RVFbs proliferation and activation in a dose dependent manner”. The “PE-induced adult rat cardiomyocytes hypertrophy” value in series [2] was “prevents PE-induced adult rat cardiomyocytes hypertrophy”. Also, the “hypertrophy and right ventricle (RV) fibrosis” value in series [3] (100 mpk orally BID) was “improved”. The “cardiac function over time compared to vehicle control” value in series [3] (echocardiography) is recorded as “directly improved cardiac function”. In [3] (right heart catheterization), the RVEPD result was “improved”, the RVSP result is recorded as “improved”, the cardiac output result was “improved” and the stroke volume result was “improved”. In addition, the cardiac output entry in series [4] is listed as “considerable increase”. In series [5] (SMi and/or SoCs), the apoptosis result is listed as “improved”, the fibrosis entry is reported as “reduced”, the hypertrophy entry is on record as “reduced” and the “media cell wall thickness” value is reported as “improved”. In addition, in [5] (SMi and/or SoCs), the proliferation result is given as “improved”, the stroke volume entry is “improved” and the vascular remodeling entry is recorded as “improved”. In series [5] (SMi and/or SoCs (Macitentan, Tadalafil)), the cardiac output result is recorded as “improved”. The “cardiac and vascular improvement” value in series [6] was “cardiac and vascular improvement”. In addition, in series [7], the “apoptosis (annexin V)” value is listed as “increased apoptosis” and the “proliferation (Ki67)” value was “impaired proliferation”. Moreover, the “cardiac function vascular remodeling (EVG, media wall thickness, mPAP, cardiac output, RVFAC)” value in series [8] is “improved cardiac function vascular remodeling”. For the same molecule, the vascular remodeling result in series [8] (100 mpk orally BID, 2 weeks) is on record as “improved vascular remodeling”. The “hypertrophy and right ventricle (RV) fibrosis” value in series [8] (SMi alone or in combination with SoCs) was “improved”. For the same molecule, the vascular remodeling result in [8] (SMi alone or with Maci (1 mg/kg) + Tada (10 mg/kg)) is “improved vascular remodeling”.

As a reminder, the half-life is the time needed for the level to fall by half in the phase considered. On to `CN1CC(=O)N2[C@H](c3ccc4c(c3)OCO4)c3[nH]c4ccccc4c3C[C@@H]2C1=O` [Tadalafil, tadalafil], for which the half-life in series [9] (in patients with PAH) is given as 35 h.

In turn, P1D6 (antibody) gave a reduction of hPASMCs proliferation in [10] of 70%. In series [11], this molecule displayed an IC50 (nM), cell adhesion assay of 5.6 nM and an IC50 (ug/ml), cell adhesion assay of 0.84 µg/mL.

Turning to “M200: integrin α5β1 antibody, heavy chain SEQ ID NO: 1, light chain SEQ ID NO: 2”, the “proliferation of hPASMCs” value in series [12] is reported as “reduced proliferation”.

Turning to `CCCCC[C@H](O)/C=C/[C@@H]1[C@H]2C/C(=C/CCCC(=O)O)O[C@H]2C[C@H]1O` [Flolan, epoprostenol], in [13], the stability is recorded as 8 h. Further, the half-life in series [9] (in vivo) is 0.05 to 0.083 h.

B1: volociximab (M200) (antibody, human IgG4, kappa, V domains shown)
VH: QVQLKESGPGLVAPSQSLSITCTISGFSLTDYGVHWVRQPPGKGLEWLVVIWSDGSSTYNSALKSRMTIRKDNSKSQVFLIMNSLQTDDSAMYYCARHGTYYGMTTTGDALDYWGQGTSVTVSS
VL: QIVLTQSPAIMSASLGERVTMTCTASSSVSSNYLHWYQQKPGSAPNLWIYSTSNLASGVPARFSGSGSGTSYSLTISSMEAEDAATYYCHQYLRSPPTFGGGTKLEIKR
For B1, in [14], the “IC50 (nM), cell adhesion assay” value was 6.8 nM and the “IC50 (ug/ml), cell adhesion assay” value is 1 µg/mL.
